Measured values: patent US20240174671A1, “New 2,3-Dihydro-1H-pyrrolo[3,2-b]pyridine Derivatives as Sigma Ligands” (ACONDICIONAMIENTO TARRASENSE, priority 2021, published 2024)
Read-outs that look alike come from different tables or passages of the source.

Legend:
[1] = target: T1, human σ1 receptor (Homo sapiens, UniProt Q99720); assay: Human σ1 receptor radioligand assay ([3H](+)-pentazocine); type: binding
T1 construct: expressed in transfected cells; host or cells: HEK-293
Description: Human σ1 Receptor Radioligand Assay
(§1) NBS (non-specific binding) was measured by adding 10 μM haloperidol. The binding of the test compound was measured at either one concentration (% inhibition at 1 or 10 µM) or five different concentrations to determine affinity values (Ki). Plates were incubated at 37° C. for 120 minutes. After the incubation period, the reaction mix was then transferred to MultiScreen HTS, FC plates (Millipore), filtered and plates were washed 3 times with ice-cold 10 mM Tris-HCL (pH7.4). Filters were dried and counted at approximately 40% efficiency in a MicroBeta scintillation counter (Perkin-Elmer) using EcoScint liquid scintillation cocktail.

[2] = target: T2, human σ2/TMEM97 receptor (Homo sapiens, UniProt Q5BJF2); assay: Binding assay to human σ2/TMEM97 receptor ([3H]-DTG)
T2 construct: expressed in transfected cells; host or cells: HEK-293
T2 sequence (Q5BJF2 whole entry): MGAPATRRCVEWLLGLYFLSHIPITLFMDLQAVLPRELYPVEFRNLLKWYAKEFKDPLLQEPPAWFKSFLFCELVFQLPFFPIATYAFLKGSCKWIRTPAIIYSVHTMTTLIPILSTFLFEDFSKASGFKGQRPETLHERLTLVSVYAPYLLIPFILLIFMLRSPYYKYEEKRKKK
Description: Binding Assay to Human σ2/TMEM97 Receptor.
as §1, with “Transfected HEK-293 membranes (15 μg) were incubated with 10 nM [^3H]-1,3-Di-o-tolylguanidine (DTG) in assay buffer containing Tris-HCl 50 mM at pH 8.0. NSB” for “NBS”, “25°” for “37°”, “was” for “was then”, “and” for “and plates were”, “(pH 8.0).” for “(pH7.4).”

[3] = transfected HEK-293 membranes, 5 nM [3H](+)-pentazocine, 37° C., 120 minutes, read-out: Binding σ-[…] (binding to σ1-receptor expressed as Ki)
[4] = transfected HEK-293 membranes, 10 nM [3H]-DTG, 25° C., 120 minutes, read-out: Binding σ-[…] (binding to σ2-receptor expressed as Ki)

T1 sequence (Q99720 whole entry): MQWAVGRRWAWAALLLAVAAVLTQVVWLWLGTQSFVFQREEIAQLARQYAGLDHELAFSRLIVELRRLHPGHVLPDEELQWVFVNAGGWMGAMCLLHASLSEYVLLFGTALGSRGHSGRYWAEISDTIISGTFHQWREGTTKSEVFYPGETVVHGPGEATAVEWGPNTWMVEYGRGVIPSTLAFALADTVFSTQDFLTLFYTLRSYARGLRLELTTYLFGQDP

| SMILES | Ki [1, 3] | Ki [2, 4] | Ki [1] | Ki [2] |
| --- | --- | --- | --- | --- |
| Cc1ccc2c(n1)C(C)(C)CN2C(=O)N1CCN(Cc2ccccc2)CC1 [Example 10, (4-benzylpiperazin-1-yl)(3,3,5-trimethyl-2,3-dihydro-1H-pyrrolo[3,2-b]pyridin-1-yl)methanone] | 100 to 500 nM | > 1000 nM |  |  |
| CN(Cc1ccc(F)c(F)c1)C1CCN(C(=O)N2CC(C)(C)c3ncccc32)CC1 [Example 79, (4-((3,4-Difluorobenzyl)(methyl)amino)piperidin-1-yl)(3,3-dimethyl-2,3-dihydro-1H-pyrrolo[3,2-b]pyridin-1-yl)methanone] | 100 to 500 nM | < 100 nM |  |  |
| Cc1ccc2c(n1)C(C)(C)CN2C(=O)NC1CCN(Cc2ccc(C#N)cc2)CC1 [Example 24, N-(1-(4-cyanobenzyl)piperidin-4-yl)-3,3,5-trimethyl-2,3-dihydro-1H-pyrrolo[3,2-b]pyridine-1-carboxamide] | < 100 nM | > 1000 nM |  |  |
| COc1cccc(CN2CCC3(CC2)CCN(C(=O)N2CC(C)(C)c4nc(C)ccc42)C3)c1 [Example 95, (8-(3-methoxybenzyl)-2,8-diazaspiro[4.5]decan-2-yl)(3,3,5-trimethyl-2,3-dihydro-1H-pyrrolo[3,2-b]pyridin-1-yl)methanone] | > 1000 nM | < 100 nM |  |  |
| CN[C@@H](CNC(=O)N1CC(C)(C)c2nc(C)ccc21)c1ccccc1 [Example 112, (R)-3,3,5-trimethyl-N-(2-(methylamino)-2-phenylethyl)-2,3-dihydro-1H-pyrrolo[3,2-b]pyridine-1-carboxamide] | 100 to 500 nM | > 1000 nM |  |  |
| Cc1ccc2c(n1)C(C)(C)CN2C(=O)[C@H]1CC[C@H](N(C)Cc2ccc(F)cn2)CC1 [Example 179, ((1r,4r)-4-(((5-fluoropyridin-2-yl)methyl)(methyl)amino)cyclohexyl)(3,3,5-trimethyl-2,3-dihydro-1H-pyrrolo[3,2-b]pyridin-1-yl)methanone] | < 100 nM | 100 to 500 nM |  |  |
| CCN[C@@H](CNC(=O)N1CC(C)(C)c2nc(C)ccc21)c1ccccc1 [Example 113, (R)—N-(2-(ethylamino)-2-phenylethyl)-3,3,5-trimethyl-2,3-dihydro-1H-pyrrolo[3,2-b]pyridine-1-carboxamide] |  | > 1000 nM | 100 to 500 nM |  |
| Cc1ccc2c(n1)C(C)(C)CN2C(=O)C1CN(Cc2cccc(F)c2)C1 [Example 135, (1-(3-fluorobenzyl)azetidin-3-yl)(3,3,5-trimethyl-2,3-dihydro-1H-pyrrolo[3,2-b]pyridin-1-yl)methanone] | < 100 nM | 500 to 1000 nM |  |  |
| Cc1nc2c(cc1F)N(C(=O)NC[C@@H](c1ccccc1)N(C)C)CC2(C)C [Example 16, (R)—N-(2-(dimethylamino)-2-phenylethyl)-6-fluoro-3,3,5-trimethyl-2,3-dihydro-1H-pyrrolo[3,2-b]pyridine-1-carboxamide] | < 100 nM | > 1000 nM |  |  |
| Cc1ccc2c(n1)C(C)(C)CN2C(=O)NCC(c1ccccc1)N1CCCC1 (centres unmarked) [Example 7, 3,3,5-trimethyl-N-(2-phenyl-2-(pyrrolidin-1-yl)ethyl)-2,3-dihydro-1H-pyrrolo[3,2-b]pyridine-1-carboxamide] | 100 to 500 nM | > 1000 nM |  |  |
| CN(Cc1ccccc1)[C@H]1CC[C@H](C(=O)N2CC(C)(C)c3nc(C(F)(F)F)ccc32)CC1 [Example 186, ((1r,4r)-4-(benzyl(methyl)amino)cyclohexyl)(3,3-dimethyl-5-(trifluoromethyl)-2,3-dihydro-1H-pyrrolo[3,2-b]pyridin-1-yl)methanone] | < 100 nM | > 1000 nM |  |  |
| Cc1ccc2c(n1)C(C)(C)CN2C(=O)N1CCC(N(C)Cc2cccc(C#N)c2)CC1 [Example 118, 3-((methyl(1-(3,3,5-trimethyl-2,3-dihydro-1H-pyrrolo[3,2-t]pyridine-1-carbonyl)piperidin-4-yl)amino)methyl)benzonitrile] | > 1000 nM | < 100 nM |  |  |
| CC1(C)CN(C(=O)NC2CN(Cc3ccccc3)C2)c2cccnc21 [Example 88, N-(1-benzylazetidin-3-yl)-3,3-dimethyl-2,3-dihydro-1H-pyrrolo[3,2-b]pyridine-1-carboxamide] | 100 to 500 nM | > 1000 nM |  |  |
| CC1(C)CN(C(=O)N2CCC3(CCN(Cc4cc(F)ccc4F)CC3)C2)c2cccnc21 [Example 148, (8-(2,5-difluorobenzyl)-2,8-diazaspiro[4.5]decan-2-yl)(3,3-dimethyl-2,3-dihydro-1H-pyrrolo[3,2-b]pyridin-1-yl)methanone] | < 100 nM | < 100 nM |  |  |
| Cc1ccc2c(n1)C(C)(C)CN2C(=O)[C@H]1CN(Cc2ccccc2)C[C@@H]1C [Example 125, ((3R,4R)-1-benzyl-4-methylpyrrolidin-3-yl)(3,3,5-trimethyl-2,3-dihydro-1H-pyrrolo[3,2-b]pyridin-1-yl)methanone] | < 100 nM | 100 to 500 nM |  |  |
| Cc1ccc2c(n1)C(C)(C)CN2C(=O)N1CCC(NCc2ccccc2)CC1 [Example 115, (4-(benzylamino)piperidin-1-yl)(3,3,5-trimethyl-2,3-dihydro-1H-pyrrolo[3,2-b]pyridin-1-yl)methanone] | > 1000 nM | 100 to 500 nM |  |  |
| Cc1ccc2c(n1)C(C)(C)CN2C(=O)[C@H]1C[C@H](NCc2ccccc2)C1 [Example 134, ((1r,3r)-3-(benzylamino)cyclobutyl)(3,3,5-trimethyl-2,3-dihydro-1H-pyrrolo[3,2-b]pyridin-1-yl)methanone] | 100 to 500 nM | > 1000 nM |  |  |
| CN(Cc1ccccc1)[C@H]1CC[C@@H](C(=O)N2CC(C)(C)c3ncccc32)CC1 [Example 127, ((1s,4s)-4-(benzyl(methyl)amino)cyclohexyl)(3,3-dimethyl-2,3-dihydro-1H-pyrrolo[3,2-b]pyridin-1-yl)methanone] | < 100 nM | < 100 nM |  |  |
| CC1(C)CN(C(=O)N2CCC3(CCN(Cc4cccc(C#N)c4)CC3)C2)c2cccnc21 [Example 90, 3-((2-(3,3-dimethyl-2,3-dihydro-1H-pyrrolo[3,2-b]pyridine-1-carbonyl)-2,8-diazaspiro[4.5]decan-8-yl)methyl)benzonitrile] | 100 to 500 nM | < 100 nM |  |  |
| Cc1ccc2c(n1)C(C)(C)CN2C(=O)N1CCC2(CCN(Cc3cccc(S(C)(=O)=O)c3)CC2)C1 [Example 102, (8-(3-(methylsulfonyl)benzyl)-2,8-diazaspiro[4.5]decan-2-yl)(3,3,5-trimethyl-2,3-dihydro-1H-pyrrolo[3,2-b]pyridin-1-yl)methanone] | > 1000 nM | < 100 nM |  |  |
| CC1(C)CN(C(=O)NCC2CCN(Cc3ccccc3)CC2)c2cccnc21 [Example 69, N-((1-benzylpiperidin-4-yl)methyl)-3,3-dimethyl-2,3-dihydro-1H-pyrrolo[3,2-b]pyridine-1-carboxamide] | 100 to 500 nM | 100 to 500 nM |  |  |
| Cc1ccc2c(n1)C(C)(C)CN2C(=O)[C@H]1CC[C@H](N(C)Cc2ccc(C(F)(F)F)nc2)CC1 [Example 184, ((1r,4r)-4-(methyl((6-(trifluoromethyl)pyridin-3-yl)methyl)amino)cyclohexyl)(3,3,5-trimethyl-2,3-dihydro-1H-pyrrolo[3,2-b]pyridin-1-yl)methanone] | < 100 nM | < 100 nM |  |  |
| Cc1ccc2c(n1)C(C)(C)CN2C(=O)N1CCC2(CCN(Cc3cccc(C#N)c3)CC2)C1 [Example 92, 3-((2-(3,3,5-trimethyl-2,3-dihydro-1H-pyrrolo[3,2-b]pyridine-1-carbonyl)-2,8-diazaspiro[4.5]decan-8-yl)methyl)benzonitrile] | > 1000 nM | < 100 nM |  |  |
| Cc1ccc2c(n1)C(C)(C)CN2C(=O)N1CCC2(CCN(CCc3ccccc3)CC2)C1 [Example 91, (8-phenethyl-2,8-diazaspiro[4.5]decan-2-yl)(3,3,5-trimethyl-2,3-dihydro-1H-pyrrolo[3,2-b]pyridin-1-yl)methanone] | 500 to 1000 nM |  |  | < 100 nM |
| Cc1ccc2c(n1)C(C)(C)CN2C(=O)[C@H]1CC[C@H](N(C)Cc2c(F)cccc2F)CC1 [Example 171, ((1r,4r)-4-((2,6-difluorobenzyl)(methyl)amino)cyclohexyl)(3,3,5-trimethyl-2,3-dihydro-1H-pyrrolo[3,2-b]pyridin-1-yl)methanone] | < 100 nM | < 100 nM |  |  |
| Cc1ccc2c(n1)C(C)(C)CN2C(=O)[C@@H]1CN(Cc2ccccc2)C[C@H]1C [Example 124, ((3S,4S)-1-benzyl-4-methylpyrrolidin-3-yl)(3,3,5-trimethyl-2,3-dihydro-1H-pyrrolo[3,2-b]pyridin-1-yl)methanone] | < 100 nM | > 1000 nM |  |  |
| COc1cccc(CN(C)C2CCN(C(=O)N3CC(C)(C)c4nc(C)ccc43)CC2)c1 [Example 59] | 500 to 1000 nM | < 100 nM |  |  |
| CC(C)(C)CCN1CCC(CNC(=O)N2CC(C)(C)c3ncccc32)CC1 [Example 109, N-((1-(3,3-dimethylbutyl)piperidin-4-yl)methyl)-3,3-dimethyl-2,3-dihydro-1H-pyrrolo[3,2-b]pyridine-1-carboxamide] | 100 to 500 nM | < 100 nM |  |  |
